The target of test [1] is T1, Human RORγ Ligand Binding Domain (RORγ-LBD) (Homo sapiens, UniProt P51449).
T1 construct: made in house; host or cells: E. coli BL21(DE3)
T1 sequence (P51449 263-518): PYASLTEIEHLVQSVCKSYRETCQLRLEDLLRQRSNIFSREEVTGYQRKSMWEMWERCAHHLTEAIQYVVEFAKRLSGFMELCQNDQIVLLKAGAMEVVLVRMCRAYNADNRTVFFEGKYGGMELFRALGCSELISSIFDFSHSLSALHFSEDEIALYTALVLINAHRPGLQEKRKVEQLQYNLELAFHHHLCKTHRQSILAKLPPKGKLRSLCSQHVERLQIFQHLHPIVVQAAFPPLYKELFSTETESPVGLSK
Description: Dual Fluorescence Energy Transfer (FRET) assay. Type of test: biochemical. Conditions: mean of multiple test results if tested more than once; read-out: pIC50 in the dual FRET assay (converted). An excerpt:
This assay is based on the knowledge that nuclear receptors interact with cofactors (transcription factors) in a ligand dependent manner. RORγ is a typical nuclear receptor in that it has an AF2 domain in the ligand binding domain (LBD) which interacts with co-activators. The sites of interaction have been mapped to the LXXLL motifs in the co-activator SRC1(2) sequences. Short peptide sequences containing the LXXLL motif mimic the behavior of full-length co-activator.
The assay measures ligand-mediated interaction of the co-activator peptide with the purified bacterial-expressed RORγ ligand binding domain (RORγ-LBD) to indirectly assess ligand binding. RORγ has a basal level of interaction with the co-activator SRC1(2) in the absence of ligand, thus it is possible to find ligands that inhibit or enhance the RORγ/SRC1(2) interaction.
Human RORγ Ligand Binding Domain (RORγ-LBD) was expressed in E. coli strain BL21(DE3) as an amino-terminal polyhistidine tagged fusion protein. DNA encoding this recombinant protein was sub-cloned into a modified pET21a expression vector (Novagen). […]
Approximately 50 g E. coli cell pellet was resuspended in 300 mL of lysis buffer (30 mM imidazole pH 7.0 and 150 mM NaCl). […] After washing to baseline absorbance with the equilibration buffer, the column was developed with a gradient from 30 to 500 mM imidazole pH 7.0. […]

Test [2] deals with human CD4+ T cells. Kind of test: Human peripheral blood CD4+ T cell cultures and cytokine analysis (Th17 polarization). Type of test: cell-based. Conditions: secreted IL-17A, 5 days Th17 polarization. Here is the method:
Human biological samples were cryopreserved human CD4+ T cells purchased from AllCells, LLC and Stemcell Technologies, Inc. The CD4+ T cells were differentiated to the Th17 subtype by culturing for 5 days in tissue culture plates coated with anti-CD3 antibody (2 μg/mL) in Iscove's modified Dulbecco's medium (IMDM) containing 10% HI-FBS, 55 μM 2-mercaptoethanol and soluble anti-CD28 (3 μg/mL) in the presence of a Th17 skewing cocktail, including IL-1β (10 ng/mL), IL-6 (30 ng/mL), TGFβ (0.5 ng/mL), IL-21 (10 ng/mL), IL-23 (10 ng/mL), anti-IFNγ (10 μg/mL) and anti-IL-4 (10 μg/mL). To examine compound effects on Th17 polarization, freshly thawed CD4+ cells in IMDM supplemented with all Th17 polarization cocktail constituents (above) were seeded at low cell density (20,000 cells/well) directly into anti-CD3 coated round bottom 96-well plates already containing serially diluted compounds. Cells were incubated undisturbed for 5 days at 37° C. Immediately following culture, supernatant was analyzed for secreted IL-17A and IL-22 protein by MSD electrochemiluminescent cytokine assays (Mesoscale Discovery) and ELISA (Quantikine assay, R&D Systems), respectively. Compound treatment(s) were performed in triplicate. Results are presented as the mean±SD or as mean percent inhibition (±SD) relative to the response to stimulus alone.

With `Cc1ncc(C(=O)Nc2cc(Cl)cc(CN3CCN(C(=O)CC4CC4)[C@@H](C)C3)c2C)cc1F` [Example 80, (S)—N-(5-chloro-3-((4-(2-cyclopropylacetyl)-3-methylpiperazin-1-yl)methyl)-2-methylphenyl)-5-fluoro-6-methylnicotinamide], the IC50 in test [1] is around 100 nM; in test [2] (Homo sapiens, CD4+ T, 120 h, read-out: IL17A pIC50 (converted)) it was 28.8 nM. For the same compound, the “Inhibition Activity (ASSYM MAX)” value in test [2] came to 94.

Values taken from patent US9902735B2, “Heteroaryl substituted compounds as RORγ inhibitors” (GlaxoSmithKline Intellectual Property Developement Limited, priority 2014, dated 2018).
